In assay [1] the target is T1, Cyclin-G-associated kinase (Homo sapiens) (UniProt O14976).
T1 sequence (whole entry): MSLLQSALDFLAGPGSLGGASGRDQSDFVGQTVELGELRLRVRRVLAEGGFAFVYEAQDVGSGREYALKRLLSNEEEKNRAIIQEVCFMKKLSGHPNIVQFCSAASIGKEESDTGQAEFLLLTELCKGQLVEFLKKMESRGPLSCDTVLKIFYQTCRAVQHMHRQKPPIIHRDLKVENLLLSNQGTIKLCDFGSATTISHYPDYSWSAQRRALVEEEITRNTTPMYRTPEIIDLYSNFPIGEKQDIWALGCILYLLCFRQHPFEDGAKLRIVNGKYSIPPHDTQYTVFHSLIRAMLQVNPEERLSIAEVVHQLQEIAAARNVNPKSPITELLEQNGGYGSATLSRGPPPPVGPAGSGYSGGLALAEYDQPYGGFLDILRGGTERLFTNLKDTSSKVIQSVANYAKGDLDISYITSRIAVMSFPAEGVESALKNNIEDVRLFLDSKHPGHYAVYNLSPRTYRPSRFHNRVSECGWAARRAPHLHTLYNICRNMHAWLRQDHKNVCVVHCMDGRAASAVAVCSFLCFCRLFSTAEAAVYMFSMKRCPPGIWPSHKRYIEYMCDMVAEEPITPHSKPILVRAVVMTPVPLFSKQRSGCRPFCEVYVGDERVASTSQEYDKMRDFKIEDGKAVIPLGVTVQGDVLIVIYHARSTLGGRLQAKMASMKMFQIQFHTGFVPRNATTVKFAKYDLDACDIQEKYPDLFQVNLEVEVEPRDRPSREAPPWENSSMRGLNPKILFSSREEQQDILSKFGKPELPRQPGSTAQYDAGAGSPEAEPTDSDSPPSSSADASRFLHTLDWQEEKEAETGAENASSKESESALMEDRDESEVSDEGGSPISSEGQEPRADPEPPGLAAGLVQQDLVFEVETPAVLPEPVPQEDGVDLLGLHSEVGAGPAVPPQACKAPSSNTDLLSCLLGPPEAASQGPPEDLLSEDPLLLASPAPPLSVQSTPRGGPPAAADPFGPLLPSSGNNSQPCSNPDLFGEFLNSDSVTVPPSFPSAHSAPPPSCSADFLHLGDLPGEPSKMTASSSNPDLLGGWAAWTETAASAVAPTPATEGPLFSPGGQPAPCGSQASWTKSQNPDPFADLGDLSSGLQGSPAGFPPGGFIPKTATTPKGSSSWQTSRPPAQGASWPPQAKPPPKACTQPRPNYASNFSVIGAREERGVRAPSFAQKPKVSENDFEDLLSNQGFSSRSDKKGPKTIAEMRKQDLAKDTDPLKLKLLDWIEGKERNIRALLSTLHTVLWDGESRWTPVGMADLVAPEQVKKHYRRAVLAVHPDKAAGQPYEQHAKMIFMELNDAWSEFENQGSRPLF
Kind of assay: GAK SGC Tm panel (DSF). Conditions: for ΔTm: Compound concentration 10.0 uM.

Assay [2] addresses Beta-2 adrenergic receptor (Homo sapiens) (UniProt P07550). The following applies: Compound concentration 10.0 uM.
Assay [3] concerns the target Cyclin-dependent kinase-like 1 (Homo sapiens) (UniProt Q00532). Kind of assay: CDKL1 SGC Tm panel (DSF). The following applies: for ΔTm: Compound concentration 10.0 uM.
Assay [4] concerns the target Cell division control protein 42 homolog (Homo sapiens) (UniProt P60953). The assay can be described thus: CDC42 SGC Tm panel (DSF). The following applies: for ΔTm: Compound concentration 10.0 uM.
Assay [5] deals with Ephrin type-A receptor 5 (Homo sapiens) (UniProt P54756). The assay can be described thus: EPHA5 SGC Tm panel (DSF). Conditions: for ΔTm: Compound concentration 10.0 uM.
Assay [6] has as its target Maternal embryonic leucine zipper kinase (Homo sapiens) (UniProt Q14680). The assay can be described thus: MELK SGC Tm panel (DSF). The following applies: for ΔTm: Compound concentration 10.0 uM.
For assay [7], the target named is T2, Serine/threonine-protein kinase ULK1 (Homo sapiens) (UniProt O75385).
T2 sequence (whole entry): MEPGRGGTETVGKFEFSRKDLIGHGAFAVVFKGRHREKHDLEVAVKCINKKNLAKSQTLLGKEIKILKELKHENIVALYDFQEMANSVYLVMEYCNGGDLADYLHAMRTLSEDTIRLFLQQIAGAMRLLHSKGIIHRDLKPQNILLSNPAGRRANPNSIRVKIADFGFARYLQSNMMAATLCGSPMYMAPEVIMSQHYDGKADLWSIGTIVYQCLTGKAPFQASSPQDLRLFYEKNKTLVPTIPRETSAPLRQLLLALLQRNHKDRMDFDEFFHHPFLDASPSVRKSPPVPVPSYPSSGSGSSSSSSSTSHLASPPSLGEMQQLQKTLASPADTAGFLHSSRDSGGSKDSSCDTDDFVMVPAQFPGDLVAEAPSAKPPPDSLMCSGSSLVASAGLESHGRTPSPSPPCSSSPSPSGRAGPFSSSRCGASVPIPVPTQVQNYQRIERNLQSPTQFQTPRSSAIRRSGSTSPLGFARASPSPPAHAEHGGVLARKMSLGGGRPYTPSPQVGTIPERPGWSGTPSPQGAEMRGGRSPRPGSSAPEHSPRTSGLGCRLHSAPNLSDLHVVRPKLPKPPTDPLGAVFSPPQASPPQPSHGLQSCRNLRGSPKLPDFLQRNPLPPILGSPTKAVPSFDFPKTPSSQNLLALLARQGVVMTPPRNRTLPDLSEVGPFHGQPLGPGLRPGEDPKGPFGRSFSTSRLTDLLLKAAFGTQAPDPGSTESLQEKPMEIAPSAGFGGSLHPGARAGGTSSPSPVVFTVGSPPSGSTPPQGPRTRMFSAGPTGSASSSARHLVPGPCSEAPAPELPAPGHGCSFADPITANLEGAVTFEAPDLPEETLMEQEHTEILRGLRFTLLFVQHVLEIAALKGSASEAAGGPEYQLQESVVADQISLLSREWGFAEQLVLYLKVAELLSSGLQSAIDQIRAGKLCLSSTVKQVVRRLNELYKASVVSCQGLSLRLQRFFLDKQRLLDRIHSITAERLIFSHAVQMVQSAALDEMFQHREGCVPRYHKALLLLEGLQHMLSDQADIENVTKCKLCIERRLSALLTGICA
Kind of assay: ULK1 SGC Tm panel (DSF). The following applies: for ΔTm: Compound concentration 10.0 uM.

For assay [8], the target named is Cyclin-dependent kinase 16 (Homo sapiens) (UniProt Q00536). The assay can be described thus: PCTK1 SGC Tm panel (DSF). The following applies: for ΔTm: Compound concentration 10.0 uM.
In assay [9] the target is Casein kinase I isoform epsilon (Homo sapiens) (UniProt P49674). The assay can be described thus: CSNK1E SGC Tm panel (DSF). The following applies: for ΔTm: Compound concentration 10.0 uM.
The target of assay [10] is Calcium/calmodulin-dependent protein kinase type II subunit beta (Homo sapiens) (UniProt Q13554). Kind of assay: CAMK2B SGC Tm panel (DSF). Conditions: for ΔTm: Compound concentration 10.0 uM.
Assay [11] has as its target Serine/threonine-protein kinase Chk2 (Homo sapiens) (UniProt O96017). The assay can be described thus: CHEK2 SGC Tm panel (DSF). Conditions: for ΔTm: Compound concentration 10.0 uM.
The species entered for the next assay is Rattus norvegicus. Conditions: Compound concentration 10.0 uM.

Sequence of Serine/threonine-protein kinase Chk2 (Homo sapiens) (O96017 whole entry): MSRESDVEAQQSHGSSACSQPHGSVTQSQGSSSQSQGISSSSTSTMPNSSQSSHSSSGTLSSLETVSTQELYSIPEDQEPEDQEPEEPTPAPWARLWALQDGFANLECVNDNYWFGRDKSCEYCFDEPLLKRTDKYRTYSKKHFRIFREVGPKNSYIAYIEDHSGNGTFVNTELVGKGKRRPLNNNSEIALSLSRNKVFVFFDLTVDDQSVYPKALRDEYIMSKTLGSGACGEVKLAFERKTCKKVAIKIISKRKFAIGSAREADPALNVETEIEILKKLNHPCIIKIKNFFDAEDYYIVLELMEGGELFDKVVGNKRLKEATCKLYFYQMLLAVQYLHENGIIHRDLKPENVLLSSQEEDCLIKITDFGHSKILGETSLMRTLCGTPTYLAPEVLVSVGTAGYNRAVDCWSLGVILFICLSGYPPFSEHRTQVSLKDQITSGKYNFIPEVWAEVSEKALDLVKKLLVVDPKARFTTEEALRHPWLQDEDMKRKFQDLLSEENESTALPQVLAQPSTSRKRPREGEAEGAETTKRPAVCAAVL
Sequence of Cyclin-dependent kinase-like 1 (Homo sapiens) (Q00532 whole entry): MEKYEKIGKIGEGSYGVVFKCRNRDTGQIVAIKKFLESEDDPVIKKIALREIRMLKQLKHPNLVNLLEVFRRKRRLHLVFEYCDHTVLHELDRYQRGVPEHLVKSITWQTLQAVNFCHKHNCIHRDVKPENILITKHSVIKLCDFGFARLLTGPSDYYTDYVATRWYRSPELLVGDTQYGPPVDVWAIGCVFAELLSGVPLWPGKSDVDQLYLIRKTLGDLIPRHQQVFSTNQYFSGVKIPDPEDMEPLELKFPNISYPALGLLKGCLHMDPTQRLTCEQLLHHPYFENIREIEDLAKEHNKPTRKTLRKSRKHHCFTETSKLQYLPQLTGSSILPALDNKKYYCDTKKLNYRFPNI
Sequence of Maternal embryonic leucine zipper kinase (Homo sapiens) (Q14680 whole entry, looked up): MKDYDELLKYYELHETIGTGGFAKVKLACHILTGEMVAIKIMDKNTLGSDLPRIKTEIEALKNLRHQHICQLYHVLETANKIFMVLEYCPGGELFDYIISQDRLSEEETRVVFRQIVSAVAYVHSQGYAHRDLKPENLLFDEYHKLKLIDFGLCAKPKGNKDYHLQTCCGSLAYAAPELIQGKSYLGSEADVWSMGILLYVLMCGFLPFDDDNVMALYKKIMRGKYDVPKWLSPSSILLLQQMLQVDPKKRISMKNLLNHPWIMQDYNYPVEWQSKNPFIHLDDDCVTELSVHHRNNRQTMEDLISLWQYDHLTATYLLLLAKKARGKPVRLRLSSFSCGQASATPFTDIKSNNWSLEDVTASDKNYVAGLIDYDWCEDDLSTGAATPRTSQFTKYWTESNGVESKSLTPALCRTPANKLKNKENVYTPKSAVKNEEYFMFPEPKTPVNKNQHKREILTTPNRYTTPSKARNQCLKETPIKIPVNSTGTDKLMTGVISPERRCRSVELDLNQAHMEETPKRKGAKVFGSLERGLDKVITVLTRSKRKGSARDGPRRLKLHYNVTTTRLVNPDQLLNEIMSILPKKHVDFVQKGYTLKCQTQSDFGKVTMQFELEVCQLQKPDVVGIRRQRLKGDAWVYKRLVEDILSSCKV
Sequence of Casein kinase I isoform epsilon (Homo sapiens) (P49674 whole entry, looked up, canonical isoform): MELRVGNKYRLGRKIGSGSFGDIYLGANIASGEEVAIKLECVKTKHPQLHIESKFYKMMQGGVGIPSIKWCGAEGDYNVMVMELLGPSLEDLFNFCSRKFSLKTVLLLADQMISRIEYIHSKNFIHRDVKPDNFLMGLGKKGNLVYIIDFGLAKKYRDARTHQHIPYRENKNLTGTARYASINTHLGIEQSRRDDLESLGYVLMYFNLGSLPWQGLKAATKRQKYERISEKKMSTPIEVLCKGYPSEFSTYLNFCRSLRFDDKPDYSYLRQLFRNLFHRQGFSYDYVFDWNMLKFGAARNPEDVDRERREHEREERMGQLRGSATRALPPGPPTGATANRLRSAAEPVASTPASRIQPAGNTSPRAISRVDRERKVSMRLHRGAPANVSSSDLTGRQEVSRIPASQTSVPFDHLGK
Sequence of Ephrin type-A receptor 5 (Homo sapiens) (P54756 whole entry): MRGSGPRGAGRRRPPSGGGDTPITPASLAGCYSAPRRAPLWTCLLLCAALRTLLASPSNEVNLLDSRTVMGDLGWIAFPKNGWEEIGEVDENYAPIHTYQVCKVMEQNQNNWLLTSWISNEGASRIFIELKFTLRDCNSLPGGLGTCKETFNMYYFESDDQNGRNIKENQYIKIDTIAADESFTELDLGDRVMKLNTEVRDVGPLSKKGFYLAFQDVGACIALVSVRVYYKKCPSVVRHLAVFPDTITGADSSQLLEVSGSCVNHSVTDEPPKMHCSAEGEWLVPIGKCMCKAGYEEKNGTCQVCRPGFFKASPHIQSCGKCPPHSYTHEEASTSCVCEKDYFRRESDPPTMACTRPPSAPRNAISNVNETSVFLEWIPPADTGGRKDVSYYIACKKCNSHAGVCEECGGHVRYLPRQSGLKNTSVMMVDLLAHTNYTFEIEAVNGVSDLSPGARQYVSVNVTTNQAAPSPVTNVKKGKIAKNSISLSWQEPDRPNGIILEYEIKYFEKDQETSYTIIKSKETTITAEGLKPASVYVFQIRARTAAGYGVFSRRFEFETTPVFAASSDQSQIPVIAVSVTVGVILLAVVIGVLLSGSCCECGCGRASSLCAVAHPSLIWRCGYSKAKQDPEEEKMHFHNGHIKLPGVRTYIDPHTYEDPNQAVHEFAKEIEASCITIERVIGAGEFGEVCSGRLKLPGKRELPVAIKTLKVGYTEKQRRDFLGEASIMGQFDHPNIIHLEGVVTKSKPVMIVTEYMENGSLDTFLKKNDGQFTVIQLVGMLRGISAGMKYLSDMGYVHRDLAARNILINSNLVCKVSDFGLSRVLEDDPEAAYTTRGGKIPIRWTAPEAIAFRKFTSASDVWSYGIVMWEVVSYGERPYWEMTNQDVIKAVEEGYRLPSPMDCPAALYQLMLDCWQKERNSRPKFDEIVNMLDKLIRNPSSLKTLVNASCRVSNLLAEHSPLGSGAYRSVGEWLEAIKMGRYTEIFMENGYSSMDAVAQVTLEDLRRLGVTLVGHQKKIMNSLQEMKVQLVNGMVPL
Sequence of Calcium/calmodulin-dependent protein kinase type II subunit beta (Homo sapiens) (Q13554 whole entry): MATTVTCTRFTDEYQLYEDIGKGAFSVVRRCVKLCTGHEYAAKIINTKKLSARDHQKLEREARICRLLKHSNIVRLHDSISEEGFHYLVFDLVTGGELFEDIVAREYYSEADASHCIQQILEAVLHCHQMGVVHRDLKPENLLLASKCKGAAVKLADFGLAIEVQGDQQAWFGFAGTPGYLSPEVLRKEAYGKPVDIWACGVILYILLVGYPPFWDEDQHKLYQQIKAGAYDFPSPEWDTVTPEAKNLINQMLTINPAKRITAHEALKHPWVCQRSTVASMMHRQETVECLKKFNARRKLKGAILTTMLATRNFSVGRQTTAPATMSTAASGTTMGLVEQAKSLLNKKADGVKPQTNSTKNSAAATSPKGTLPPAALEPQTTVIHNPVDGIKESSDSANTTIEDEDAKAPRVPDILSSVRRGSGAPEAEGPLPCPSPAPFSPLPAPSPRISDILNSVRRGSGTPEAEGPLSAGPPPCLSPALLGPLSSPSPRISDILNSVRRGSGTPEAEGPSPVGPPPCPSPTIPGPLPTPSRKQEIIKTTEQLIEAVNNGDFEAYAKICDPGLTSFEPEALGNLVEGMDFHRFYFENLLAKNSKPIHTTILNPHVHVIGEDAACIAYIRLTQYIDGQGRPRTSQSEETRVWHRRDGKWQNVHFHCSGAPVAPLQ
Sequence of Cell division control protein 42 homolog (Homo sapiens) (P60953 whole entry, looked up): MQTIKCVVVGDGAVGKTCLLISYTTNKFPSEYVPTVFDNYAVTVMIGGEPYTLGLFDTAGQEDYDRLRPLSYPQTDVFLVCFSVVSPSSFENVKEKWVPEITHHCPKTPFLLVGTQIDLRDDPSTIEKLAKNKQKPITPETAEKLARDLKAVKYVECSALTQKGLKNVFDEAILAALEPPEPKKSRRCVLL
Sequence of Cyclin-dependent kinase 16 (Homo sapiens) (Q00536 whole entry, canonical isoform): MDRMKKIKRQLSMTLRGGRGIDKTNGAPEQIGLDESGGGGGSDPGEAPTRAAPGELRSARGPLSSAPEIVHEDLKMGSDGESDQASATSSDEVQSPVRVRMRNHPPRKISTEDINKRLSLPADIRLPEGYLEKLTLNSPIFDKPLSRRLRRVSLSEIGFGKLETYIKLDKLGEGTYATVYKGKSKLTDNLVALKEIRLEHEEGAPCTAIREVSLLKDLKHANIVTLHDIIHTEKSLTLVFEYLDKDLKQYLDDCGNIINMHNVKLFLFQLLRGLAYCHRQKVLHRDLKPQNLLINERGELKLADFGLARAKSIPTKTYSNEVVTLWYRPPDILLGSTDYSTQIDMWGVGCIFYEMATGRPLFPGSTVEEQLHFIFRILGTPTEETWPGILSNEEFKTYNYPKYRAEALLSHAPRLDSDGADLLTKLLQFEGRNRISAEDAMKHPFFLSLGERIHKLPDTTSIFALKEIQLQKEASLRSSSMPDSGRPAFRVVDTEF
Sequence of Beta-2 adrenergic receptor (Homo sapiens) (P07550 whole entry, looked up): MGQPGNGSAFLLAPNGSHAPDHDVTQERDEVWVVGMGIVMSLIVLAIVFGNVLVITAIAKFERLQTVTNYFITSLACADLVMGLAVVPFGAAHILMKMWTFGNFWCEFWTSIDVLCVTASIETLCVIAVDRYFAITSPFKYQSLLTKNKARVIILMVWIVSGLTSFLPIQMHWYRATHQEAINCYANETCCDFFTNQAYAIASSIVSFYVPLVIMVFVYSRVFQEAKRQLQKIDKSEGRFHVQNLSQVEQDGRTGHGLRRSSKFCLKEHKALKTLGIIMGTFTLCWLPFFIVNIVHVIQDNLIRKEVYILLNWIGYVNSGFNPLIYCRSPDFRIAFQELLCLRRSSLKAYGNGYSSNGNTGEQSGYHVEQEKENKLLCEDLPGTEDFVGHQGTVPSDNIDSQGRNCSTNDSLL

Consider `COC[C@H](NC(=O)c1ccn(S(C)(=O)=O)c1)C(=O)Nc1nc(-c2cccc(-c3ccn(C)n3)c2)cs1`, for which the delta Tm Staurosporine positive control in assay [1] is 8.71; in [3], 5; in assay [4] it was 2.78; in assay [5], 8.98; in assay [6], 14; in assay [7], 13.4. The delta Tm Staurosporine positive control worked out at 7.03 in assay [8], 3.74 in assay [9], 14.5 in assay [10] and 16.7 in assay [11]. Also, the ΔTm in assay [1] is -0.217; in assay [3] it was 0.194; in assay [4], 0.57; in assay [5] it was 0.13; in assay [6], -0.053; in [7] it was 0.528. Moreover, the ΔTm in [8] was -1.23; in assay [9], 0.508; in assay [10], 0.588; in [11], -0.718. The inhibition in [2] is 1.42%; in the assay filed under Rattus norvegicus it was 47.5%.
On to `C[C@H](NC(=O)c1cn(C2(C#N)CC2)cn1)C(=O)Nc1nc(-c2cccc(-c3ccn(C)n3)c2)cs1`, for which the delta Tm Staurosporine positive control in assay [1] turned out to be 8.71; in assay [3], 5; in assay [4] it was 2.78; in assay [5] it was 8.98; in assay [6], 14; in assay [7], 13.4. Further, the delta Tm Staurosporine positive control in [8] worked out at 7.03; in [9] it was 3.74; in assay [10], 14.5; in [11], 16.7. The ΔTm in assay [1] was -0.0366; in assay [3] it was 0.189; in assay [4], -0.206; in assay [5], 0.273; in assay [6] it was 0.116; in [7], 0.0519. Besides, the ΔTm in [8] is -1.44; in assay [9], 0.73; in assay [10] it was 0.509; in [11] it was -1.06. Further, the inhibition in [2] is -5.95%; in the assay filed under Rattus norvegicus, 64.6%.

In general, inhibition refers to the drop in the measured response relative to a control, in per cent.

Source of the values: ChEMBL document CHEMBL5303766, “Data for DCP probe FHT-2344” (2022).
